From patent US20180093104A1, “LIGHT IRRADIATION METHOD, LIGHT IRRADIATION DEVICE, LIGHT IRRADIATION SYSTEM, DEVICE SYSTEM FOR PHOTODYNAMIC DIAGNOSIS OR PHOTODYNAMIC THERAPY, SYSTEM FOR SPECIFYING TUMOR SITE AND SYSTEM FOR TREATING TUMOR” (SONY CORPORATION, priority 2015, published 2018)

System: MCF7 (Human breast adenocarcinoma-derived cell line)
Assay: In vitro PDT experiment: calcein fluorescence viability observation after 405 nm pulse laser irradiation
Assay type: cell-based
Method: In vitro experiments of PDT were performed by using the following materials. Target cells: MCF7 (Human breast adenocarcinoma-derived cell line) Dish: φ35 mm glass bottom dish (non-coated) Culture medium: D-MEM-10% FBS-1% P/S-1 mM pyruvate sodium Photosensitizer: 10 μg/ml talaporfin Viability assay fluorescence reagent: 10 μg/ml calcein Firstly, dishes A and B in which MCF7 had been cultured in the culture medium described above were prepared. Into the dish A, talaporfin was not added, and the dish A was used as a control. Into the dish B, talaporfin at 10 μg/ml was added. […] After the irradiation, incubation was performed further for 18 hours, the cultured cells in each dish were washed twice with phosphate-buffered saline (PBS), substitution with 1 ml of calcein at 10 μg/ml was performed, and the cultured cells in each dish were observed.

## C=Cc1c(C)c2cc3nc(c(CC(=O)N[C@@H](CC(=O)O)C(=O)O)c4[nH]c(cc5nc(cc1[nH]2)C(C)=C5CC)c(C)c4C(=O)O)[C@@H](CCC(=O)O)[C@@H]3C [talaporfin]
Experiment 1: 10 μg/ml talaporfin, 24 hours incubation, pulse laser 405 nm, 120 fs, 1 mW for 30 minutes, observed 18 hours after irradiation, compared with dish A without talaporfin
  killing of cultured cells (calcein fluorescent image, FIG. 8 vs FIG. 7): significantly killed
Experiment 2: 10 μg/ml talaporfin, 24 hours incubation, non-irradiated parts of dish B
  killing of cultured cells in parts of the dish where irradiation had not been performed: not able to be confirmed
Experiment 2: 10 μg/ml talaporfin, 24 hours incubation, pulse laser 405 nm for 10 minutes, compared with dish A without talaporfin
  killing of cultured cells (calcein fluorescent image, FIG. 10 vs FIG. 9): significantly killed
Experiment 3: 10 μg/ml talaporfin, 24 hours incubation, not irradiated with a pulse laser
  killing of cultured cells (calcein fluorescent image, FIG. 12): not killed
Experiment 4: 10 μg/ml talaporfin, 1.5 hours incubation, pulse laser 405 nm for 10 minutes
  killing of cultured cells (calcein fluorescent image, FIG. 14): the cells were alive
